# Target: T1, Synaptotagmin-4 (SYT4) (Homo sapiens, UniProt Q9H2B2)
# T1 construct: Recombinant SYT4 protein
# T1 sequence (Q9H2B2 1-425): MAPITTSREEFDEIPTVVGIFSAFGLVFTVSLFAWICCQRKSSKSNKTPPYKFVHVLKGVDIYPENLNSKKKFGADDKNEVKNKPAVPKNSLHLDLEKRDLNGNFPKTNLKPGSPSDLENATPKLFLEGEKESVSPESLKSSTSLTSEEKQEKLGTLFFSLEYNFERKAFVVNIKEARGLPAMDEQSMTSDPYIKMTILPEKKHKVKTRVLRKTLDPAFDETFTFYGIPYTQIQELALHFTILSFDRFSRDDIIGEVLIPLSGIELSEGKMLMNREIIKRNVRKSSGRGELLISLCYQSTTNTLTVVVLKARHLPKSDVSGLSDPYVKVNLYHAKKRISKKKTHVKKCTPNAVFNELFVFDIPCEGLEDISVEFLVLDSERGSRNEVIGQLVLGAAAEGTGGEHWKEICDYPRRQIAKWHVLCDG
# Assay: SPR (Biacore T200, SYT4 immobilized on CM5 chip)
# Format: binding
compound,measurement,value
C=CC(=O)Nc1ccc2[nH]c(=O)n(C3CCN(Cc4ccc(-c5nc6cc[nH]c(=O)c6cc5-c5ccccc5)cc4)CC3)c2c1 [borussertib],Kd,16 µM

# Reference: publication PMC12631102, “SYT4 Interacts with PSMC6 to Facilitate Malignant Progression in Gastric Carcinoma via Activating Wnt/β-catenin Signaling” (International Journal of Biological Sciences, 2025)
